In US20240148821A1, “PHARMACEUTICAL USE OF CYCLIC PEPTIDE COMPOUND” (CHUGAI SEIYAKU KABUSHIKI KAISHA, priority 2021, published 2024):
Numbered stars: 1 amine (or outer) side, 2 acyl side, 3 side chain; on linkers, the order of the positions; unused ones are H or OH. Bridge positions count the residues as written; N and C are the ends. Square brackets hold non-standard residues; d marks the D form. Peptide text beside a SMILES is read from it. * marks the point of attachment. hPhe(3-Cl-4-CF3) = N[C@@H](CCc1ccc(C(F)(F)F)c(Cl)c1)C(=O)O; hPhe(4-CF3) = N[C@@H](CCc1ccc(C(F)(F)F)cc1)C(=O)O; X120 = O=C([C@H](Cc1cc(F)cc(Br)c1)N[*:1])[*:2]; NMePhe(4-Cl) = CN[C@@H](Cc1ccc(Cl)cc1)C(=O)O; NMePhe(2-F) = CN[C@@H](Cc1ccccc1F)C(=O)O; Phe(3-Br) = N[C@@H](Cc1cccc(Br)c1)C(=O)O; NMeGly(cPent) = CN[C@H](C(=O)O)C1CCCC1; NMeY = CN[C@@H](Cc1ccc(O)cc1)C(=O)O; NMeCha = CN[C@@H](CC1CCCCC1)C(=O)O; NMeGly(cPr) = CN[C@H](C(=O)O)C1CC1; NMeChg = CN[C@H](C(=O)O)C1CCCCC1; NMeF = CN[C@@H](Cc1ccccc1)C(=O)O; NMeD = CN[C@@H](CC(=O)O)C(=O)O; NMeL = CN[C@@H](CC(C)C)C(=O)O; NMeV = CN[C@H](C(=O)O)C(C)C; d(β3hA) = C[C@@H](N)CC(=O)O; NMeAbu = CC[C@H](NC)C(=O)O; NMeS = CN[C@@H](CO)C(=O)O; NMeA = CN[C@@H](C)C(=O)O; NMeAib = CNC(C)(C)C(=O)O; Nle = CCCC[C@H](N)C(=O)O; Piperidide = C1CCN(*)CC1; Ac5c = NC1(C(=O)O)CCCC1; Aze = O=C(O)[C@@H]1CCN1; CH2CMe2OH = CC(C)(O)C*; Aib = CC(C)(N)C(=O)O; Cyclopropyl = C1CC1*; Isopentyl = CC(C)CC*; NEtG = CCNCC(=O)O; Sar = CNCC(=O)O

Each molecule was assayed on Human pancreatic cancer cell line AsPC-1 (G12D mutation Kras) (assay: AsPC-1 cell growth inhibition (AsPC-1 CGI)). Conditions: read-out: AsPC-1 cell growth inhibition, 50% growth inhibitory concentration (IC50 value); 96 hours, CellTiter-Glo, values classified in ranges.
Assay type: cell-based
Procedure: Test compounds were serially dilated with dimethyl sulfoxide, and 200 nL was then dispensed to a U-bottom 96-well plate using Labcyte Echo. […] The cell suspension was dispensed to a. plate containing a test compound at 100 μL per well and incubated at 37° C. in a 5% carbon dioxide gas incubator. 96 hours later, 80 μL of CellTiter-Glo (Promega) was added to each well and fluorescence was measured.

SMILES	IC50 [nM]
CC[C@H](C)[C@@H]1NC(=O)[C@H](CC(C)C)N(C)C(=O)C[C@@H](C(=O)N2CCCCC2)N(C)C(=O)[C@H](COC2CC2)N(C)C(=O)C2(CCCC2)NC(=O)[C@@H]2CCCN2C(=O)[C@H](CCc2ccc(C(F)(F)F)c(Cl)c2)NC(=O)CN(C)C(=O)[C@H](CC2CCCCC2)N(C)C(=O)CN(C)C(=O)CN(C)C1=O [Compound 1857] ([NMeL]I[Sar][Sar][NMeCha][Sar][hPhe(3-Cl-4-CF3)]P[Ac5c][NMeS](Cyclopropyl)[NMeD]-Piperidide; lactam N-11)	> 500
CCCC[C@@H]1NC(=O)[C@H](Cc2cccc(Br)c2)NC(=O)CN(C)C(=O)[C@H](Cc2ccc(Cl)cc2)N(C)C(=O)[C@@H]2CCN2C(=O)[C@H](C)N(C)C(=O)[C@H]([C@@H](C)CC)NC(=O)[C@H](CC(C)C)N(C)C(=O)C[C@@H](C(=O)N2CCCCC2)N(C)C(=O)[C@H](CC(C)C)NC(=O)C(C)(C)N(C)C1=O [Compound 1415] ([NMeL]I[NMeA][Aze][NMePhe(4-Cl)][Sar][Phe(3-Br)][Nle][NMeAib]L[NMeD]-Piperidide; lactam N-11)	> 500
CC[C@H](C)[C@@H]1NC(=O)[C@H](CC(C)C)N(C)C(=O)C[C@@H](C(=O)N2CCCCC2)N(C)C(=O)[C@H](C2CCCCC2)N(C)C(=O)C2(CCCC2)NC(=O)[C@H](Cc2ccccc2)N(C)C(=O)[C@H](CCc2ccc(C(F)(F)F)c(Cl)c2)NC(=O)CN(C)C(=O)[C@H](CC2CCCCC2)N(C)C(=O)[C@@H]2CCN2C(=O)CN(C)C1=O [Compound 527] ([NMeL]I[Sar][Aze][NMeCha][Sar][hPhe(3-Cl-4-CF3)][NMeF][Ac5c][NMeChg][NMeD]-Piperidide; lactam N-11)	> 500
CC[C@H](C)[C@@H]1NC(=O)[C@H](CC(C)C)N(C)C(=O)C[C@@H](C(=O)N2CCCCC2)N(C)C(=O)[C@H](C2CCCCC2)N(C)C(=O)C2(CCCC2)NC(=O)[C@@H]2CCCN2C(=O)[C@H](CCc2ccc(C(F)(F)F)c(Cl)c2)NC(=O)CN(C)C(=O)[C@H](C2CC2)N(C)C(=O)CN(C)C(=O)CN(C)C1=O [Compound 1666] ([NMeL]I[Sar][Sar][NMeGly(cPr)][Sar][hPhe(3-Cl-4-CF3)]P[Ac5c][NMeChg][NMeD]-Piperidide; lactam N-11)	> 500
CC[C@H](C)[C@@H]1NC(=O)[C@H](C)N(C)C(=O)C[C@@H](C)NC(=O)[C@H](C2CCCC2)N(C)C(=O)C2(CCCC2)NC(=O)[C@@H]2CCCN2C(=O)[C@H](CCc2ccc(C(F)(F)F)c(Cl)c2)NC(=O)CN(C)C(=O)[C@H](Cc2ccccc2F)N(C)C(=O)[C@@H]2CCCN2C(=O)CN(C)C1=O [Compound 1077] (cyclo([Ac5c][NMeGly(cPent)][d(β3hA)][NMeA]I[Sar]P[NMePhe(2-F)][Sar][hPhe(3-Cl-4-CF3)]P))	> 500
CCCC[C@@H]1NC(=O)[C@H](Cc2cc(F)cc(Br)c2)NC(=O)CN(C)C(=O)[C@H](Cc2ccc(OC)cc2)N(C)C(=O)[C@@H]2CCN2C(=O)[C@H](C)N(C)C(=O)[C@H]([C@@H](C)CC)NC(=O)[C@H](CC)N(C)C(=O)C[C@@H](C(=O)N2CCCCC2)N(C)C(=O)[C@H](CC(C)C)NC(=O)C(C)(C)N(C)C1=O [Compound 1372] ([NMeAbu]I[NMeA][Aze][NMeY](Me)[Sar][X120][Nle][NMeAib]L[NMeD]-Piperidide; lactam N-11)	> 500
CC[C@H](C)[C@@H]1NC(=O)[C@H](CC(C)C)N(C)C(=O)C[C@@H](C(=O)N2CCCCC2)NC(=O)[C@H](C(C)C)N(C)C(=O)C2(CCCC2)NC(=O)[C@@H]2CCCN2C(=O)[C@H](CCc2ccc(C(F)(F)F)c(Cl)c2)NC(=O)CN(C)C(=O)[C@H](CC2CCCCC2)N(C)C(=O)CN(C)C(=O)CN(C)C1=O [Compound 417] ([NMeL]I[Sar][Sar][NMeCha][Sar][hPhe(3-Cl-4-CF3)]P[Ac5c][NMeV]D-Piperidide; lactam N-11)	> 500
CC[C@H](C)[C@@H]1NC(=O)[C@H](CC(C)C)N(C)C(=O)C[C@@H](C(=O)N2CCCCC2)N(C)C(=O)[C@H](CC(C)C)N(C)C(=O)C(C)(C)NC(=O)[C@H](COCC(C)(C)O)N(C)C(=O)[C@H](CCc2ccc(C(F)(F)F)cc2)NC(=O)CN(C)C(=O)[C@H](COCCC(C)C)N(C)C(=O)CN(C)C(=O)CN(CC)C1=O [Compound 1528] ([NMeL]I[NEtG][Sar][NMeS](Isopentyl)[Sar][hPhe(4-CF3)][NMeS](CH2CMe2OH)[Aib][NMeL][NMeD]-Piperidide; lactam N-11)	> 500
CC[C@H](C)[C@@H]1NC(=O)[C@H](CC(C)C)N(C)C(=O)C[C@@H](C(=O)N2CCCCC2)N(C)C(=O)[C@H](C2CCCCC2)N(C)C(=O)C2(CCCC2)NC(=O)[C@@H]2CCCN2C(=O)[C@H](CCc2ccc(C(F)(F)F)c(Cl)c2)NC(=O)CN(C)C(=O)[C@H](CO)N(C)C(=O)CN(C)C(=O)CN(C)C1=O [Compound 1687] ([NMeL]I[Sar][Sar][NMeS][Sar][hPhe(3-Cl-4-CF3)]P[Ac5c][NMeChg][NMeD]-Piperidide; lactam N-11)	> 500
